In patent US20110288093A1 (priority 2010, published 2011):
“Also recorded” adds a separate entry of the source.

Experiments:
cholera toxin (CTX) = test system: cholera toxin (CTX); parameters: species or system mice (CD1 strain); conditions: mouse, in vivo
[1] = test system: Calcium activated chloride conductance (CaCC); assay: Whole cell patch clamp recordings of CaCC in JME/CF15 cells; type: cell-based
Experimental: (§1) Compound 2 was tested in whole cell patch clamp recordings for its specific effect on the swelling-activated chloride conductance (VRAC), and the Calcium activated chloride conductance (CaCC). CaCC and VRAC were investigated in JME/CF15 cells. […] Effect of compound 2 was tested in 2 runs at 1 and 10 μM, respectively, on CaCC, and VRAC.
(§2) JME/CF15 cells (see Jefferson et al. “Expression of normal and cystic fibrosis phenotypes by continuous airway epithelial cell lines” Am J Physiol. (1990) 259:L496-L505) were cultured as described (see Schwarzer et al. “Organelle redox of CF and CFTR-corrected airway epithelia measured with roGFP1” Free Radic Biol Med. (2007) 43:300-316, incorporated herein by reference in its entirety) and were seeded onto glass cover slips at low density and used 1 to 2 days after seeding
(§3) Whole cell patch clamp experiments were performed as described (see Fischer et al. “Basolateral C1 channels in primary airway epithelial cultures” Am J Physiol Lung Cell Mol Physiol. (2007) 292:L1432-L1443, incorporated herein by reference in its entirety), the pipette solution contained (in mM): 140 HCl, 160 N-methyl-D-glucamine (NMDG), 1 MgCl2, 5 Hepes, 1 glucose, 5 MgATP, pH 7.4. To investigate VRAC, the pipette contained in addition 5 mM EGTA. To investigate CaCC, the intracellular free Ca concentration was buffered to ˜500 nM by adding 1.8 mM CaCl2 and 2 mM EGTA. […]

[2] = test system: swelling-activated chloride conductance (VRAC); assay: Whole cell patch clamp recordings of VRAC in JME/CF15 cells; type: cell-based
Experimental: as §1, §2, §3

[3] = 10 μM, 0% indicates complete block and 100% indicates no block
[4] = tested at 1 and 10 μM, block stronger at depolarizing (positive) potential

O=C(NCc1ccc(Oc2ccccc2)cc1)c1nc(-c2cc(Br)c(O)c(Br)c2)no1 [BF'032, 3-(3,5-dibromo-4-hydroxyphenyl)-N-(4-phenoxybenzyl)-1,2,4-oxadiazole-5-carboxamide]
inhibition of CTX-induced fluid secretion (cholera toxin (CTX)): 90.16% | inhibition of fluid secretion (in words) (cholera toxin (CTX)): statistically significant inhibition | net fluid secretion (loop weight/loop length), CTX loop (cholera toxin (CTX)): 0.06482 g/cm of loop

O=S(=O)(Nc1cccc(-c2ccc(OCCc3ccc(Cl)cc3)nn2)c1)C(F)(F)F [compound 2, N-(3-(6-(4-chlorophenethoxy)pyridazin-3-yl)phenyl)-1,1,1-trifluoromethanesulfonamide]
current remaining in CaCC after the addition of compound [1, 3]: 64% | block of CaCC (in words) [1, 4]: blocks CaCC and that the block is voltage dependent; also recorded: blocked CaCC and the block was voltage dependent | current remaining in VRAC [2, 3]: 23% | block of VRAC (in words) [2, 4]: blocks VRAC significantly and that the block is voltage dependent; also recorded: blocked VRAC significantly and the block was voltage dependent | inhibition of fluid secretion (in words) (cholera toxin (CTX)): statistically significant inhibition
